Results as given in the supplement of paper PMC4862054.
Values joined by “and” are separate entries in the source; they are usually repeats but may differ in a detail not shown here. Equal entries are not always repeated.

Key:
CAL-148 [1] = test: normalised viability (% of control), CellTiter-Blue; higher = more viable cells (about 100 = DMSO control); conditions: incubation time: 72 h
Protocol: (§1)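 DSRT, CellTiter-Blue viability, 72 h incubation. Signal is normalised to DMSO and benzethonium chloride controls. Value is the normalised response at dose 9.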

CAL-51 [2] = test: as above; conditions: incubation time: 72 h
Protocol: as §1

CAL-85-1 = test: as above; conditions: incubation time: 72 h
Protocol: as §1

DU-4475 = test: as above; conditions: incubation time: 72 h
Protocol: as §1

HDQ-P1 = test: as above; conditions: incubation time: 72 h
Protocol: as §1

MDA-MB-453 = test: as above; conditions: incubation time: 72 h
Protocol: as §1

CAL-148 [3] = conditions: 72 h
Procedure, shortened: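 Breast cancer cell lines (20 µl suspension) were seeded into 384-well plates holding compound at 5 concentrations in 10-fold steps over a compound-specific 10,000-fold range, then incubated 72 h. Cell death was read first by CellTox Green fluorescence (485/520 nm), then viability by CellTiter-Glo luminescence after 10 min at room temperature. Each plate was normalised to 0.1 % DMSO and a positive kill control. EC50 was fitted from the dose-response curves and censored at the top concentration.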

BT-474 = conditions: 72 h
Procedure, shortened: (§2)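 Viability of breast cancer cell lines was measured with CellTiter-Blue after 72 h of incubation on compound-loaded 384-well plates. Cells were seeded in 20 µl onto compound dissolved in 5 µl medium, and 2.5 µl reagent was added for 2 h at 37 °C before reading at 560/590 nm. EC50 was fitted from percent-inhibition dose-response data censored at the highest concentration, normalised per plate to vehicle and a positive kill control, with zero drug sensitivity score rows dropped.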

BT-549 [4] = conditions: 72 h
Procedure, shortened: as §2

CAL-120 = conditions: 72 h
Procedure, shortened: as §2

HCC1143 = conditions: 72 h
Procedure, shortened: as §2

HCC1599 = conditions: 72 h
Procedure, shortened: as §2

HCC1937 = conditions: 72 h
Procedure, shortened: as §2

Hs578T = conditions: 72 h
Procedure, shortened: as §2

MDA-MB-231 = conditions: 72 h
Procedure, shortened: as §2

MDA-MB-436 = conditions: 72 h
Procedure, shortened: as §2

MDA-MB-468 = conditions: 72 h
Procedure, shortened: as §2

MFM-223 = conditions: 72 h
Procedure, shortened: as §2

SK-BR-3 = conditions: 72 h
Procedure, shortened: as §2

CAL-148 [5] = conditions: 72 h; remark: listed apart in the source
Protocol: (§3)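 Drug sensitivity and resistance testing (DSRT) of breast cancer cell lines in 384-well plates, 5 concentrations in 10-fold dilutions over a compound-specific 10,000-fold range. After 72 h, cytotoxicity was read by CellTox Green fluorescence and viability by CellTiter-Glo luminescence (multiplexed), normalised to DMSO and benzethonium chloride controls. EC50 is the inflection point of the fitted dose-response curve (bottom asymptote free, so it can be relative for partial curves) and is censored at the highest tested concentration. Rows with DSS 0 (no meaningful response) were excluded.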

CAL-51 [6] = conditions: 72 h
Protocol: as §3

BT-549 [7] = conditions: 72 h; remark: listed apart in the source
Protocol: as §3

Structure (SMILES)	normalised viability (CAL-148 [1])	normalised viability (CAL-51 [2])	normalised viability (CAL-85-1)	normalised viability (DU-4475)	normalised viability (HDQ-P1)	normalised viability (MDA-MB-453)	also measured
Nc1cccc2c1CN(C1CCC(=O)NC1=O)C2=O (stereo unspecified) [Lenalidomide] (10000 nM)	86.1% and 106%	97.1% and 99.6%	81.6% and 86.1%	95% and 80.6%	106% and 110%	94.2% and 92.1%	–
C[C@]12O[C@H](C[C@]1(O)CO)n1c3ccccc3c3c4c(c5c6ccccc6n2c5c31)CNC4=O [Lestaurtinib] (1000 nM)	90.9%	55%	39.7%	2.87%	77.9%	28.9%	–
O=C1c2c(O)ccc(O)c2C(=O)c2c(NCCNCCO)ccc(NCCNCCO)c21 [Mitoxantrone]	–	–	–	–	–	–	EC50, CellTiter-Glo (CAL-148 [3]): 403 nM; EC50, CellTiter-Blue viability (BT-474): 106 nM; EC50, CellTiter-Blue viability (BT-549 [4]): 350 nM; EC50, CellTiter-Blue viability (CAL-120): 15.9 nM; EC50, CellTiter-Blue viability (HCC1143): 11.8 nM; EC50, CellTiter-Blue viability (HCC1599): 52.1 nM; EC50, CellTiter-Blue viability (HCC1937): 2.13 nM; EC50, CellTiter-Blue viability (Hs578T): 532 nM; EC50, CellTiter-Blue viability (MDA-MB-231): 51.7 nM; EC50, CellTiter-Blue viability (MDA-MB-436): 684 nM; EC50, CellTiter-Blue viability (MDA-MB-468): 74.8 nM; EC50, CellTiter-Blue viability (MFM-223): 522 nM; EC50, CellTiter-Blue viability (SK-BR-3): 34.5 nM; EC50, CellTox Green (CAL-148 [5]): 124 nM; EC50, CellTox Green (CAL-51 [6]): 185 nM
O=C1c2c(O)ccc(O)c2C(=O)c2c(NCCNCCO)ccc(NCCNCCO)c21 [Mitoxantrone] (1000 nM)	7.8%	16.9%	34%	0.48%	48.9%	31%	–
Nc1ccccc1NC(=O)c1ccc(CNc2nccc(-c3cccnc3)n2)cc1 [Mocetinostat] (10000 nM)	10%	19.3%	21%	2.37%	48.4%	11.9%	–
COc1nc(N)nc2c1ncn2[C@@H]1O[C@H](CO)[C@@H](O)[C@@H]1O [Nelarabine]	–	–	–	–	–	–	EC50, CellTox Green (BT-549 [7]): > 10000 nM
COc1nc(N)nc2c1ncn2[C@@H]1O[C@H](CO)[C@@H](O)[C@@H]1O [Nelarabine] (10000 nM)	106% and 96.7%	99.6% and 98.4%	100% and 103%	109% and 104%	69.1% and 69%	84.5% and 97.5%	–
